Read-outs that look alike come from different tables or passages of the source.
Tests used:
[1] = molecular target: T1, CFTR-mediated short-circuit current in F508del/MF-HBE cells (Homo sapiens, UniProt P13569, DEL508-508); assay: HBE assay: Ussing chamber assay of CFTR-mediated short-circuit currents; format: cell-based; conditions: 20% human serum; for HBE Activity at 10 μM: single fixed concentration of 10 μM in combination with 1 μM Ivacaftor; for HBE Activity at 10 μM / EC50: 18-24 hours; for HBE Max. activity / EC50: F508del/MF-HBE; for HBE Max. activity: in combination with 1 μM Ivacaftor, compared to known Vertex corrector with 18 μM Tezacaftor and 1 μM Ivacaftor; for EC50: range of concentrations in combination with 1 μM Ivacaftor
T1 construct: endogenous in cells; host or cells: primary human bronchial epithelial cells from CF subjects (F508del/MF)
T1 sequence (P13569 with tags, fused parts or gaps DEL508-508): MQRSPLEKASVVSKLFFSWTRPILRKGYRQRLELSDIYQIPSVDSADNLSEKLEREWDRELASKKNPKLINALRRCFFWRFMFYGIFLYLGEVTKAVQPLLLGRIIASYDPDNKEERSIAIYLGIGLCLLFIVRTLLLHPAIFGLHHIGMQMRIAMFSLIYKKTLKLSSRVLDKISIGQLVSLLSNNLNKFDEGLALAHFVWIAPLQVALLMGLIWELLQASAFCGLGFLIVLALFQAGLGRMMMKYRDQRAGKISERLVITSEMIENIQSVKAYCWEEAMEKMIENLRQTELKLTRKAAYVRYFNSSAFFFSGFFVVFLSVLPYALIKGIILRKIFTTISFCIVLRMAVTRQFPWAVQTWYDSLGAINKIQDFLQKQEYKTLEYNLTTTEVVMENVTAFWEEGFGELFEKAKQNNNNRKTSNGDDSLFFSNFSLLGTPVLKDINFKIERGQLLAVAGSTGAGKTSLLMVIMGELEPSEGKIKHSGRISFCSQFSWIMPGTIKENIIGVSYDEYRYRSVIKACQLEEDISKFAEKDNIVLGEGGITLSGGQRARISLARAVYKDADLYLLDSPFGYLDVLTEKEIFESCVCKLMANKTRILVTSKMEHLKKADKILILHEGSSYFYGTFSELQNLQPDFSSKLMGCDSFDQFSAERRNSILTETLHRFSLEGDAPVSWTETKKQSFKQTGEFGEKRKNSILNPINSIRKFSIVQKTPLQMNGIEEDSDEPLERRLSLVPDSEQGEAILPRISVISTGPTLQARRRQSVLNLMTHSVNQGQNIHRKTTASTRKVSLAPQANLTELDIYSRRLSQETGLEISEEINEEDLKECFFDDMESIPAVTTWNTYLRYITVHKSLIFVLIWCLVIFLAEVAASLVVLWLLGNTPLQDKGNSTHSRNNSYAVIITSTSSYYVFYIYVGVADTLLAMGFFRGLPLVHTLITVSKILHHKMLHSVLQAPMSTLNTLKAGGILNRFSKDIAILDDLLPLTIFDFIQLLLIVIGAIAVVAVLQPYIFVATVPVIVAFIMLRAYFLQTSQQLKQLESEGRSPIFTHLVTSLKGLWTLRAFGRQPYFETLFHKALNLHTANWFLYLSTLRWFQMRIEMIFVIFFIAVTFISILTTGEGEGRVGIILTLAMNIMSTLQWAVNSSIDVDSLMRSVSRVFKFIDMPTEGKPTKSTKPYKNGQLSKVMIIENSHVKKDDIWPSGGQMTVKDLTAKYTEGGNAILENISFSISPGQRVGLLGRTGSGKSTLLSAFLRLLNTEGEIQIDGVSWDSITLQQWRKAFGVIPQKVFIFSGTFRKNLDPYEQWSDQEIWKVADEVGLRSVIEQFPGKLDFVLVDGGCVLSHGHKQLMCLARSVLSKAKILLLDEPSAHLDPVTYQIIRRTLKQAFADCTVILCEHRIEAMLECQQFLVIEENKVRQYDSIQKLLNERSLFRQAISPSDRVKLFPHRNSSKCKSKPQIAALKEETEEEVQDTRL
Description: Ussing chamber experiments were performed using human bronchial epithelial (HBE) cells derived from CF subjects heterozygous for F508del and a minimal function CFTR mutation (F508del/MF-HBE) and cultured as previously described (Neuberger T, Burton B, Clark H, Van Goor F Methods Mol Biol 2011:741:39-54). After four days the apical media was removed, and the cells were grown at an air liquid interface for >14 days prior to use.
To isolate the CFTR-mediated short-circuit (ISC) current, F508del/MF-HBE grown on Costar® Snapwell™ cell culture inserts were mounted in an Ussing chamber and the transepithelial ISC was measured under voltage-clamp recording conditions (Vhold=0 mV) at 37° C. The basolateral solution contained (in mM) 145 NaCl, 0.83K2HPO4, 3.3 KH2PO4, 1.2 MgCl2, 1.2 CaCl2), 10 Glucose, 10 HEPES (pH adjusted to 7.4 with NaOH) and the apical solution contained (in mM) 145 NaGluconate, 1.2 MgCl2, 1.2 CaCl2), 10 glucose, 10 HEPES (pH adjusted to 7.4 with NaOH) and 30 μM amiloride to block the epithelial sodium channel. Forskolin (20 μM) was added to the apical surface to activate CFTR, followed by apical addition of a CFTR inhibitor cocktail consisting of BPO, GlyH-101, and CFTR inhibitor 172 (each at 20 μM final assay concentration) to specifically isolate CFTR currents. The CFTR-mediated ISC (μA/cm^2) for each condition was determined from the peak forskolin response to the steady-state current following inhibition.
The activity of the CFTR corrector compounds on the CFTR-mediated ISC was determined in Ussing chamber studies as described above. The F508del/MF-HBE cell cultures were either incubated with the corrector compounds at a range of concentrations in combination with 1 μM Ivacaftor or were incubated with the corrector compounds at a single fixed concentration of 10 μM in combination with 1 μM Ivacaftor for 18-24 hours at 37° C. and in the presence of 20% human serum. The concentration of corrector compounds with 1 μM Ivacaftor during the 18-24 hours incubations was kept constant throughout the Ussing chamber measurement of the CFTR-mediated ISC to ensure compounds were present throughout the entire experiment.

[2] = amide bond, DMF
[3] = molecular target: CFTR-mediated chloride transport in human intestinal epithelial enteroid cells (Homo sapiens, UniProt P13569); assay: Membrane potential dye, Enteroid Assay A; format: cell-based; conditions: for Ent. A Max Activity: % of chloride transport of triple combination control: 3 μM (S)-N-((6-aminopyridin-2-yl)sulfonyl)-6-(3-fluoro-5-isobutoxyphenyl)-2-(2,2,4-trimethylpyrrolidin-1-yl)nicotinamide, 3 μM tezacaftor, 300 nM acute ivacaftor
Chain of CFTR-mediated chloride transport in human intestinal epithelial enteroid cells (P13569 with tags, fused parts or gaps DEL508-508): as above
Description: Base medium (ADF+++) consisted of Advanced DMEM/Ham's F12, 2 mM Glutamax, 10 mM HEPES, […] penicillin/streptomycin.
Intestinal enteroid maintenance medium (IEMM) consisted of ADF+++, 1×B27 supplement, 1×N2 supplement, 1.25 mM N-acetyl cysteine, 10 mM Nicotinamide, 50 ng/mL hEGF, 10 nM Gastrin, 1 μg/mL hR-spondin-1, 100 ng/mL hNoggin, TGF-b type 1 inhibitor A-83-01, 100 μg/mL Primocin, 10 μM P38 MAPK inhibitor SB202190.
Bath 1 Buffer consisted of 1 mM MgCl2, 160 mM NaCl, 4.5 mM KCl, 10 mM HEPES, 10 mM Glucose, 2 mM CaCl2).
Chloride Free Buffer consisted of 1 mM Magnesium Gluconate, 2 mM Calcium Gluconate, 4.5 mM Potassium Gluconate, 160 mM Sodium Gluconate, 10 mM HEPES, 10 mM Glucose.
BathI Dye Solution consisted of Bath 1 Buffer, 0.04% Pluronic F127, 20 μM Methyl Oxonol, 30 μM CaCCinh-A01, 30 μM Chicago Sky Blue.
Chloride Free Dye Solution consisted of Chloride Free Buffer, 0.04% Pluronic F127, 20 μM Methyl Oxonol, 30 μM CaCCinh-A01, 30 μM Chicago Sky Blue.
Chloride Free Dye Stimulation Solution consisted of Chloride Free Dye Solution, 10 μM forskolin, 100 μM IBMX, and 300 nM Compound III.
Human intestinal epithelial enteroid cells were obtained from the Hubrecht Institute for Developmental Biology and Stem Cell Research, Utrecht, The Netherlands and expanded in T-Flasks as previously described (Dekkers J F, Wiegerinck C L, de Jonge H R, Bronsveld I, Janssens H M, de Winter-de Groot K M, Brandsma A M, de Jong N W M, Bijvelds M J C, Scholte B J, Nieuwenhuis E E S, van den Brink S, Clevers H, van der Ent C K, Middendorp S and M Beekman J M. A functional CFTR assay using primary cystic fibrosis intestinal organoids. Nat Med. 2013 July; 19(7):939-45.).
Cells were recovered in cell recovery solution, collected by centrifugation at 650 rpm for 5 minutes at 4° C., resuspended in TrypLE and incubated for 5 minutes at 37° C. Cells were then collected by centrifugation at 650 rpm for 5 minutes at 4° C. and resuspended in IEMM containing 10 μM ROCK inhibitor (RI). The cell suspension was passed through a 40 μm cell strainer and resuspended at 1×10^6 cells/mL in IEMM containing 10 μM RI. Cells were seeded at 5000 cells/well into multi-well plates and incubated for overnight at 37° C., 95% humidity and 5% CO2 prior to assay.
Enteroid cells were incubated with test compound in IEMM for 18-24 hours at 37° C., 95% humidity and 5% C02. […] Briefly, cells were washed 5 times in Bath 1 Buffer. Bath 1 Dye Solution was added, and the cells were incubated for 25 minutes at room temperature. Following dye incubation, cells were washed 3 times in Chloride Free Dye Solution. Chloride transport was initiated by addition of Chloride Free Dye Stimulation Solution and the fluorescence signal was read for 15 minutes. […] Chloride transport was then expressed as a percentage of the chloride transport following treatment with 3 μM (S)—N-((6-aminopyridin-2-yl)sulfonyl)-6-(3-fluoro-5-isobutoxyphenyl)-2-(2,2,4-trimethylpyrrolidin-1-yl)nicotinamide, 3 μM (R)-1-(2,2-difluorobenzo[d][1,3]dioxol-5-yl)-N-(1-(2,3-dihydroxypropyl)-6-fluoro-2-(1-hydroxy-2-methylpropan-2-yl)-1H-indol-5-yl)cyclopropanecarboxamide and 300 nM acute N-[2,4-bis(1,1-dimethylethyl)-5-hydroxyphenyl]-1,4-dihydro-4-oxoquinoline-3-carboxamide triple combination control (% Activity).

SMILES	HBE Activity at 10 μM [1]	HBE Max. activity [1]	EC50 [1] [nM]	Ent. A Max Activity [3]	further results
Cc1cccc(C)c1-c1cc2nc(n1)NS(=O)(=O)c1cccc(c1)C(=O)N([C@H]1CC3(C1)C[C@H](C(C)(C)O)C3)[C@H](CC(C)(C)C)CC2 (single isomer, unassigned) [Compound 65]	+++ (+++ is >60%)				
Cc1cccc(C)c1-c1cc2nc(n1)NS(=O)(=O)c1cccc(c1)C(=O)N([C@H]1CC3(C1)C[C@H](C(C)(C)O)C3)[C@H](CC(C)(C)C)CC2 (single isomer, unassigned) [Compound 66]	+++ (+++ is >60%)				
Cc1cccc(C)c1-c1cc2nc(n1)NS(=O)(=O)c1cccc(c1)C(=O)NC(CC(C)C)CN2 (stereo not shown) [Compound 37, 6-(2,6-Dimethylphenyl)-11-isobutyl-2,2-dioxo-2 λ6-thia-3,5,9,12,19-pentazatricyclo[12.3.1.14,8]nonadeca-1(18),4(19),5,7,14,16-hexaen-13-one]				+ (+ is <30%)	ring closure, yield after HPLC ([2]; from Cc1cccc(C)c1-c1cc(NCC(N)CC(C)C)nc(NS(=O)(=O)c2cccc(C(=O)O)c2)n1, 13-membered ring, HATU/Et3N, 50.6 mM, 0.5 h): 67%
Cc1cccc(C)c1-c1cc2nc(n1)NS(=O)(=O)c1cccc(c1)C(=O)N[C@H](C)CN2Cc1ccccc1 [Compound 38, (11R)-9-benzyl-6-(2,6-dimethylphenyl)-11-methyl-2,2-dioxo-2λ6-thia-3,5,9,12,19-pentazatricyclo[12.3.1.14,8]nonadeca-1(18),4(19),5,7,14,16-hexaen-13-one]				+ (+ is <30%)	ring closure, yield after HPLC ([2]; from Cc1cccc(C)c1-c1cc(N(Cc2ccccc2)C[C@@H](C)N)nc(NS(=O)(=O)c2cccc(C(=O)O)c2)n1, 13-membered ring, HATU/Et3N, 44.7 mM, 25.0 °C, 16.0 h): 23%
Cc1cccc(C)c1-c1cc2nc(n1)NS(=O)(=O)c1cccc(c1)C(=O)NCCN2CC(C)C [Compound 39, 6-(2,6-Dimethylphenyl)-9-isobutyl-2,2-dioxo-2 λ6-thia-3,5,9,12,19-pentazatricyclo[12.3.1.14,8]nonadeca-1(18),4(19),5,7,14,16-hexaen-13-one]				+ (+ is <30%)	ring closure, yield after HPLC ([2]; from Cc1cccc(C)c1-c1cc(N(CCN)CC(C)C)nc(NS(=O)(=O)c2cccc(C(=O)O)c2)n1, 13-membered ring, HATU/Et3N, 25.3 mM, 25.0 °C, 0.5 h): 35%
Cc1cccc(C)c1-c1cc2nc(n1)NS(=O)(=O)c1cccc(c1)C(=O)NCC1(CCCCC1)CN2 [Compound 40, 6-(2,6-Dimethylphenyl)-2,2-dioxo-spiro[2 λ6-thia-3,5,9,13,20-pentazatricyclo[13.3.1.14,8]icosa-1(19),4(20),5,7,15,17-hexaene-11,1′-cyclohexane]-14-one]				+ (+ is <30%)	ring closure, yield after HPLC ([2]; from Cc1cccc(C)c1-c1cc(NCC2(CN)CCCCC2)nc(NS(=O)(=O)c2cccc(C(=O)O)c2)n1, 14-membered ring, HATU/Et3N, 58.9 mM, 0.5 h): 33%; EC50 ([3]; enteroid cells, 18-24 hours incubation, acute 10 μM forskolin and 300 nM ivacaftor, read-out: Ent. A EC50): 1000 to 3000 nM

Continued, in another order:

HBE Activity at 10 μM [1]	HBE Max. activity [1]	EC50 [1] [nM]	SMILES	Ent. A Max Activity [3]	further results
	+++ (+++ is >60%)	< 1000	Cc1cccc(C)c1-c1cc2nc(n1)NS(=O)(=O)c1cccc(c1)C(=O)N(Cc1ncc(OC(C)C)cn1)[C@H](CC(C)C)CC2 [Compound 58]		
	+++ (+++ is >60%)	< 1000	Cc1cccc(C)c1-c1cc2nc(n1)NS(=O)(=O)c1cccc(c1)C(=O)N(Cc1ncc(OC3CCC3)cn1)[C@H](CC(C)C)CC2 [Compound 59]		
	+++ (+++ is >60%)	< 1000	Cc1cccc(C)c1-c1cc2nc(n1)NS(=O)(=O)c1cccc(c1)C(=O)N(Cc1nccc(N(C)C(C)C)n1)[C@H](CC(C)C)CC2 [Compound 60, (11S)-6-(2,6-dimethylphenyl)-11-isobutyl-12-[[4-[isopropyl(methyl)amino]pyrimidin-2-yl]methyl]-2,2-dioxo-2λ^6-thia-3,5,12,19-tetrazatricyclo[12.3.1.14,8]nonadeca-1(18),4(19),5,7,14,16-hexaen-13-one]		ring closure, yield after HPLC ([2]; from Cc1cccc(C)c1-c1cc(CC[C@@H](CC(C)C)NCc2nccc(N(C)C(C)C)n2)nc(NS(=O)(=O)c2cccc(C(=O)O)c2)n1, 13-membered ring, HATU/DIEA, 12.4 mM, 25.0 °C, 2.0 h): 49%
+++ (+++ is >60%)			Cc1cccc(C)c1-c1cc2nc(n1)NS(=O)(=O)c1cccc(c1)C(=O)N(C1CC3(CC3)C1)[C@H](CC(C)(C)C)CC2 [Compound 63]		

From patent US12612416B2, “Modulators of cystic fibrosis transmembrane conductance regulator” (VERTEX PHARMACEUTICALS INCORPORATED, priority 2020, dated 2026)
